Data taken from PubChem BioAssay AID330 (DTP/NCI, 2004).
“And” between values parts separate entries of the source, which are not always exact repeats. Identical values can stand only once. Inconclusive results and toxic doses are left out. Rule for the calls: active = survival T/C of 150% or more; inactive = T/C below 125% in these data.

Tested on: P388 leukemia ip, CD2F1 mice, survival T/C
Assay: NCI In Vivo Anticancer Drug Screen. Data for tumor model P388 Leukemia (intraperitoneal) in CD2F1 (CDF1) mice
Conditions: endpoint: median survival time, higher = longer survival
Method in brief: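 Mice carrying the transplanted tumor received test compound or vehicle. Survival was recorded in each group, and the value is the treated-group measurement divided by that of the vehicle-treated control group.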

[1] = dose: 50.0 mg/kg/injection, schedule: Q01DX005 (ip), vehicle: saline with Tween-80
[2] = dose: 100.0 mg/kg/injection, schedule: Q01DX005 (ip), vehicle: saline with Tween-80
[3] = dose: 200.0 mg/kg/injection, schedule: Q01DX005 (ip), vehicle: saline with Tween-80
[4] = dose: 25.0 mg/kg/injection, schedule: Q01DX005 (ip), vehicle: saline
[5] = dose: 50.0 mg/kg/injection, schedule: Q01DX005 (ip), vehicle: saline
[6] = dose: 100.0 mg/kg/injection, schedule: Q01DX005 (ip), vehicle: saline
[7] = dose: 200.0 mg/kg/injection, schedule: Q01DX005 (ip), vehicle: saline

Measured: T/C

CCOC(=O)C(=CNc1cccc(N(C)C)c1)C(=O)OCC
inactive: [1] 100 % of control | [2] 92 % of control | [3] 100 % of control

Nc1nc(N)c2nc(Sc3ccc(Cl)cc3)c(=O)[nH]c2n1
inactive: dose: 50.0 mg/kg/injection, schedule: Q01DX009 (ip), vehicle: saline with Tween-80 97 % of control | dose: 100.0 mg/kg/injection, schedule: Q01DX009 (ip), vehicle: saline with Tween-80 91 % of control | dose: 200.0 mg/kg/injection, schedule: Q01DX009 (ip), vehicle: saline with Tween-80 105 % of control

COC(=O)CC(CCCCCCCCCCCCC(C)C)OC(C)=O (stereo not drawn)
inactive: dose: 8.13 mg/kg/injection, schedule: Q01DX005 (ip), vehicle: Klucel (hydroxypropylcellulose) (HPC) 94 % of control | dose: 16.25 mg/kg/injection, schedule: Q01DX005 (ip), vehicle: Klucel (hydroxypropylcellulose) (HPC) 96 % of control | dose: 32.5 mg/kg/injection, schedule: Q01DX005 (ip), vehicle: Klucel (hydroxypropylcellulose) (HPC) 99 % of control | dose: 65.0 mg/kg/injection, schedule: Q01DX005 (ip), vehicle: Klucel (hydroxypropylcellulose) (HPC) 112 % of control

CC1(C)NC(=O)C2(CC(O)C(O)C(OC(=O)c3ccccc3)C2)O1 (stereo not drawn)
inactive: [4] 102 % of control | [5] 94 % of control | [6] 99 % of control

C[C-]=NCCCl.C[C-]=O.[C-]#[O+].[C-]#[O+].[C-]#[O+].[C-]#[O+].[Re]
inactive: dose: 12.5 mg/kg/injection, schedule: Q01DX005 (ip), vehicle: Klucel (hydroxypropylcellulose) (HPC) 102 % of control | dose: 25.0 mg/kg/injection, schedule: Q01DX005 (ip), vehicle: Klucel (hydroxypropylcellulose) (HPC) 89 % of control | dose: 50.0 mg/kg/injection, schedule: Q01DX005 (ip), vehicle: Klucel (hydroxypropylcellulose) (HPC) 93 % of control and 98 % of control

C=C[CH2][Sn]([c]1ccccc1)([c]1ccccc1)[c]1ccccc1
inactive: dose: 6.25 mg/kg/injection, schedule: Q04DX003 (ip), vehicle: saline with Tween-80 92 % of control | dose: 12.5 mg/kg/injection, schedule: Q04DX003 (ip), vehicle: saline with Tween-80 100 % of control | dose: 25.0 mg/kg/injection, schedule: Q04DX003 (ip), vehicle: saline with Tween-80 101 % of control

O=C(O)/C=C(\F)C(=O)O
inactive: dose: 12.5 mg/kg/injection, schedule: Q01DX005 (ip), vehicle: saline 97 % of control and 94 % of control | [4] 100 % of control and 96 % of control | [5] 100 % of control and 107 % of control | [6] 92 % of control and 97 % of control | [7] 97 % of control

Cc1ccc2ccc3ccc(C)nc3c2n1.O=[N+]([O-])O.O=[N+]([O-])O.[Cu]
inactive: dose: 6.25 mg/kg/injection, schedule: Q04DX002 (ip), vehicle: saline 109 % of control | dose: 12.5 mg/kg/injection, schedule: Q04DX002 (ip), vehicle: saline 113 % of control

CC(CO)CCC(O)C(C)(O)C1CCC2(O)C3=CC(=O)C4CC(O)C(O)CC4(C)C3CCC12C (stereo not drawn)
inactive: dose: 1.25 mg/kg/injection, schedule: Q01DX005 (ip), vehicle: Klucel (hydroxypropylcellulose) (HPC) 102 % of control | dose: 2.5 mg/kg/injection, schedule: Q01DX005 (ip), vehicle: Klucel (hydroxypropylcellulose) (HPC) 97 % of control | dose: 5.0 mg/kg/injection, schedule: Q01DX005 (ip), vehicle: Klucel (hydroxypropylcellulose) (HPC) 98 % of control | dose: 10.0 mg/kg/injection, schedule: Q01DX005 (ip), vehicle: Klucel (hydroxypropylcellulose) (HPC) 100 % of control | dose: 20.0 mg/kg/injection, schedule: Q01DX005 (ip), vehicle: Klucel (hydroxypropylcellulose) (HPC) 100 % of control | dose: 40.0 mg/kg/injection, schedule: Q01DX005 (ip), vehicle: Klucel (hydroxypropylcellulose) (HPC) 100 % of control | dose: 80.0 mg/kg/injection, schedule: Q01DX005 (ip), vehicle: Klucel (hydroxypropylcellulose) (HPC) 98 % of control

CC(CO)CC(C)(C)C (stereo not drawn)
inactive: [4] 101 % of control | [5] 108 % of control | [6] 104 % of control | [7] 109 % of control

CC12CCC(O)C=C1CCC1C2CCC2(C)C(C3=CC(=O)OC3)CCC12O (stereo not drawn)
inactive: dose: 3.1 micrograms/kg/injection, schedule: Q01DX009 (ip), vehicle: saline with Tween-80 101 % of control | dose: 6.2 micrograms/kg/injection, schedule: Q01DX009 (ip), vehicle: saline with Tween-80 100 % of control | dose: 12.5 micrograms/kg/injection, schedule: Q01DX009 (ip), vehicle: saline with Tween-80 96 % of control | dose: 25.0 micrograms/kg/injection, schedule: Q01DX009 (ip), vehicle: saline with Tween-80 102 % of control

Cc1ccc(NC(=O)Cc2nc3ccccc3s2)c(C)c1
inactive: dose: 60.0 mg/kg/injection, schedule: Q01DX005 (ip), vehicle: saline with Tween-80 103 % of control | dose: 120.0 mg/kg/injection, schedule: Q01DX005 (ip), vehicle: saline with Tween-80 110 % of control

CN(C)CCCN1CCC2(CCC(C(C)(C)C)CC2)CC1
inactive: [1] 106 % of control | [2] 116 % of control

COc1ccc(CSC(=S)Nc2cc(C)c(C)cc2Br)cc1
inactive: dose: 50.0 mg/kg/injection, schedule: Q01DX009 (ip), vehicle: suspension in saline 100 % of control | dose: 100.0 mg/kg/injection, schedule: Q01DX009 (ip), vehicle: suspension in saline 97 % of control | dose: 200.0 mg/kg/injection, schedule: Q01DX009 (ip), vehicle: suspension in saline 93 % of control

CN(C)CC(O)c1ccc2ccc3ccccc3c2c1 (stereo not drawn)
inactive: dose: 100.0 mg/kg/injection, schedule: Q01DX001 (ip), vehicle: Klucel (hydroxypropylcellulose) (HPC) 102 % of control | dose: 200.0 mg/kg/injection, schedule: Q01DX001 (ip), vehicle: Klucel (hydroxypropylcellulose) (HPC) 101 % of control | dose: 400.0 mg/kg/injection, schedule: Q01DX001 (ip), vehicle: Klucel (hydroxypropylcellulose) (HPC) 101 % of control

C/C=C(\CC[Se]c1ccccc1)C(=O)OC
inactive: dose: 50.0 mg/kg/injection, schedule: Q01DX009 (ip), vehicle: distilled water + Tween-80 + alcohol 108 % of control | dose: 100.0 mg/kg/injection, schedule: Q01DX009 (ip), vehicle: distilled water + Tween-80 + alcohol 98 % of control | dose: 200.0 mg/kg/injection, schedule: Q01DX009 (ip), vehicle: distilled water + Tween-80 + alcohol 106 % of control

O=C(CC1(O)C(=O)Nc2ccc([N+](=O)[O-])cc21)c1ccco1 (stereo not drawn)
inactive: dose: 60.0 mg/kg/injection, schedule: Q01DX005 (ip), vehicle: Klucel (hydroxypropylcellulose) (HPC) 96 % of control | dose: 120.0 mg/kg/injection, schedule: Q01DX005 (ip), vehicle: Klucel (hydroxypropylcellulose) (HPC) 100 % of control | dose: 240.0 mg/kg/injection, schedule: Q01DX005 (ip), vehicle: Klucel (hydroxypropylcellulose) (HPC) 99 % of control

Cl.O=C([O-])C1C[SH+]C(C(O)C(O)C(O)C(O)CO)N1.O=C([O-])C1C[SH+]C(C(O)C(O)C(O)C(O)CO)N1.[Pd+2] (stereo not drawn)
inactive: dose: 100.0 mg/kg/injection, schedule: Q01DX001 (ip), vehicle: saline 103 % of control | dose: 200.0 mg/kg/injection, schedule: Q01DX001 (ip), vehicle: saline 104 % of control | dose: 400.0 mg/kg/injection, schedule: Q01DX001 (ip), vehicle: saline 95 % of control

COc1cc(Cc2n[nH]c(=S)[nH]c2=O)cc(OC)c1OC
inactive: dose: 100.0 mg/kg/injection, schedule: Q04DX002 (ip), vehicle: Klucel (hydroxypropylcellulose) (HPC) 110 % of control | dose: 200.0 mg/kg/injection, schedule: Q04DX002 (ip), vehicle: Klucel (hydroxypropylcellulose) (HPC) 98 % of control | dose: 400.0 mg/kg/injection, schedule: Q04DX002 (ip), vehicle: Klucel (hydroxypropylcellulose) (HPC) 100 % of control

CCCCCCCCCCCCC(C(=O)O)C(C)C(=O)O (stereo not drawn)
inactive: dose: 0.25 mg/kg/injection, schedule: Q01DX009 (ip), vehicle: saline with Tween-80 96 % of control | dose: 0.5 mg/kg/injection, schedule: Q01DX009 (ip), vehicle: saline with Tween-80 102 % of control | dose: 1.0 mg/kg/injection, schedule: Q01DX009 (ip), vehicle: saline with Tween-80 104 % of control

CSc1nc(N)c2cnn(C3CCCO3)c2n1 (stereo not drawn)
inactive: [2] 102 % of control | [3] 94 % of control | dose: 400.0 mg/kg/injection, schedule: Q01DX005 (ip), vehicle: saline with Tween-80 97 % of control

O=C(O)c1cc(-c2ccc(Cl)cc2)nc2cc(Cl)ccc12
inactive: [1] 98 % of control | [2] 100 % of control

O=C1c2cccnc2C(=O)C2CC3=C(CCCC3)CC12 (stereo not drawn)
inactive: [1] 100 % of control | [2] 100 % of control | [3] 100 % of control

C/C(N)=C/C(=O)Nc1ccccc1
inactive: dose: 25.0 mg/kg/injection, schedule: Q01DX009 (ip), vehicle: Klucel (hydroxypropylcellulose) (HPC) 109 % of control | dose: 50.0 mg/kg/injection, schedule: Q01DX009 (ip), vehicle: Klucel (hydroxypropylcellulose) (HPC) 109 % of control | dose: 100.0 mg/kg/injection, schedule: Q01DX009 (ip), vehicle: Klucel (hydroxypropylcellulose) (HPC) 97 % of control | dose: 200.0 mg/kg/injection, schedule: Q01DX009 (ip), vehicle: Klucel (hydroxypropylcellulose) (HPC) 108 % of control
